Data on five molecules can be found in patent US20260167622A1, “PAN-KRAS DEGRADING AGENT, AND PREPARATION METHOD THEREFOR AND USE THEREOF” (LEADINGTAC PHARMACEUTICAL (SHAOXING) CO., LTD., priority 2022, published 2026).

For orientation: IC50 means the concentration that inhibits the measured activity by half. A higher IC50 goes with lower potency. A word on the DC50: it is the midpoint of the concentration-degradation curve. One may read the Dmax as the greatest extent of degradation seen. Read a high Dmax as deep degradation.

Type in all cases: cell-based
The subject of assay [1] is KRAS G12D mutant human metastatic pancreatic cancer cell AsPc-1. In words: 3D cell proliferation inhibition assay, AsPc-1. Conditions: ASPC1, 168 h, 3D culture, 7 days, CTG. From the text: (§1) Test Example 6: 3D Cell Proliferation Inhibition Assay
(§2) The inhibitory effects of the compounds on 3D cell proliferation were investigated on KRAS G12C mutant human non-small cell lung cancer cell NCI-H358, KRAS G12D mutant human lung cancer cell A427, KRAS G12D mutant human gastric cancer cell AGS, KRAS G12D mutant human metastatic pancreatic cancer cell AsPc-1, KRAS G12V mutant human lung squamous carcinoma cell SW900, KRAS G12V mutant human colorectal cancer cell SW620, KRAS G13D mutant human colorectal cancer epithelial cell DLD-1, and KRAS WT human gastric cancer cell MKN1. The specific procedures were as follows:
(§3) 10 μL of each compound solution diluted in a gradient was added to corresponding wells of a 96-well low-adsorption microplate (PerkinElmer), so that the final concentrations of the test compounds in the reaction system were in a range of 10000-0.026 nM. The final concentration of DMSO was 0.2%. Then 90 µL of cells were correspondingly seeded into each well to achieve a cell density of 5×10^2 cells/well (the cell density of SW900 was 5×10^3 cells/well, and the cell density of MKN1 was 1×10^3 cells/well). In addition to test wells for the test compounds, both a DMSO control well and a medium control well were set, with the DMSO control well containing DMSO and cells and the medium well containing only a medium. After the sample loading, the 96-well low-adsorption microplate was incubated in an incubator at 37° C. with […] for 7 days. After 7 days, the microplate was taken out, and 100 μL of CTG reagent (Promega) was added to each well. The plate was incubated at room temperature for 60 m and read on a microplate reader EnVision by the chemiluminescence program. The inhibition rates of the compounds at each concentration were calculated using the formula for the percentage inhibition of cell proliferation: inhibition rate 00=(mean value of DMSO control group−single concentration reading value of compound)/(mean value of DMSO control group−mean value of medium control group)×100. Then non-linear curve fillings for logarithmic concentration-inhibition rate were performed by GraphPad Prism 8, and the IC50 values of the compounds were obtained (Table 6).

The target of assay [2] is T1, KRAS G12V protein in SW900 cells (Homo sapiens, UniProt P01116, G12V).
T1 construct: endogenous in cells; host or cells: SW900
In words: KRAS degradation assay (Western Blot) in SW900 cells. The following applies: 24 h. The text has this: (§4) Test Example 5: KRAS G12C, KRAS G12D, KRAS G12V, KRAS G13D, and KRAS WT (Expanded) Degradation Assays
(§5) The degradation effect of the compounds on KRAS was investigated on KRAS G12C mutant human non-small cell lung cancer cell NCI-H358, KRAS G12D mutant human metastatic pancreatic cancer cell AsPc-1, KRAS G12D mutant human lung cancer cell A427, KRAS G12V mutant human colorectal cancer cell SW620, KRAS G12V mutant human lung cancer cell SW900, KRAS G13D mutant human colorectal cancer epithelial cell DLD-1, and KRAS WT human gastric cancer cell MKN-1. The specific procedures were as follows: 0.95 mL of cells were seeded into each well of a 24-well cell culture plate to achieve a cell density of 5×10^5 cells/well; and the cell plate was incubated in an incubator at 37° C. with 5% CO2 overnight. Then 50 μL of the compound solution after dilution was added to each of the wells with the corresponding cells, so that the final concentration of the compound was in a range of 0.03-3000 nM. The final concentration of DMSO was 0.25%. After the compounds were added, the cell plate was incubated in an incubator at 37° C. with 5% CO2 for 24 h. The culture medium in the 24-well cell culture plate was then removed, and the plate was washed twice with 1×PBS (KeyGEN). 120 μL of RIPA (strong) lysis buffer (Beyotime) (supplemented with 1 mM phenylmethylsulfonyl fluoride, a protease inhibitor mixture (Beyotime), and a protease phosphatase inhibitor mixture (Beyotime)) was added to lyse adherent SW900 cells at the bottom of the cell culture plate. After the plate was left to stand on ice for 30 min, the protein lysate in each well was transferred to a 1.5 mL centrifuge tube and centrifuged at 15000 g for 20 min at 4° C. The cell lysate supernatants after centrifugation were cryopreserved in a refrigerator at −80° C. for later use.
(§6) After the samples of the cell lysate supernatants that had been prepared were thawed from the refrigerator at −80° C., the total protein concentrations of the cell lysates were determined using a BCA protein quantification kit (Tiangen). The total protein concentrations of the samples were then adjusted to 0.5 μg/μL with PBS and 5×SDS-PAGE protein loading buffer (Beyotime), and the samples were incubated in a water bath at 100° C. for 15 min. The samples were then incubated in an ice bath for 5 min and centrifuged at 14000 g for 1 min at 4° C., and the supernatants were mixed well as loading samples for the Western Blot assay. The samples were loaded into wells of a 10% precast gel (KeyGEN) with a loading volume of 10 μL (total protein: 5 μg), a sufficient Tris-MOPS-SDS running buffer (Adamas) was added, and then electrophoresis was performed at a constant voltage of 120 V for 55 min. After the electrophoresis, the proteins on the gel were transferred to PVDF membranes at a constant current of 250 mA for 55 min. After the membrane transfer, the PVDF membranes were incubated in 1× Quick Block blocking buffer (Beyotime)at room temperature for 30 min. After the blocking, the PVDF membranes were separately incubated at 4° C. overnight with the KRAS antibody (Abcam) diluted in a ratio of 1:1000 and the β-actin antibody (Abcam) diluted in a ratio of 1:2000 in 5% BSA as the diluent, and then washed with 1×TBST buffer (2.4 g of Tris, 8.8 g of NaCl, 1.5 mL of Tween 20, with pH adjusted to 7.4, with the volume brought to 1 L) 3 times for 10 min/time. The membranes were incubated with a secondary antibody (Abcam) diluted in 5% BSA at room temperature for 2 h, and then washed with 1×TBST buffer 3 times for 10 min/time. Finally, the membranes were incubated with Clarity Western ECL Substrate (BIO-RAD) for 5 min for luminescence and color development, and a ChemiScope 6200 Touch chemiluminescence imaging system (Clinx) was used for color development and protein mapping. Gray value analysis of the protein maps was performed using the chemiluminescence analysis software (Clinx). […]
In general terms: A western blot detects proteins with antibodies after separation by electrophoresis.

For assay [3], the system named is KRAS WT human gastric cancer cell MKN1. In words: 3D cell proliferation inhibition assay, MKN1. The following applies: MKN-1, 168 h, 3D culture, 7 days, CTG.
Excerpt: as §1, §2, §3

In assay [4] the test system is KRAS G12V mutant human lung squamous carcinoma cell SW900. The experiment in a line: 3D cell proliferation inhibition assay, SW900. The following applies: SW900, 168 h, 3D culture, 7 days, CTG.
Excerpt: as §1, §2, §3

In assay [5] the test system is KRAS G12C mutant human non-small cell lung cancer cell NCI-H358. In words: 3D cell proliferation inhibition assay, NCI-H358. The following applies: NCI-H358, 168 h, 3D culture, 7 days, CTG.
Excerpt: as §1, §2, §3

The subject of assay [6] is KRAS G12V mutant human colorectal cancer cell SW620. The experiment in a line: 3D cell proliferation inhibition assay, SW620. Conditions: SW-620, 168 h, 3D culture, 7 days, CTG.
Excerpt: as §1, §2, §3

Assay [7] has as its system KRAS G13D mutant human colorectal cancer epithelial cell DLD-1. In words: 3D cell proliferation inhibition assay, DLD-1. The following applies: DLD-1, 168 h, 3D culture, 7 days, CTG.
Excerpt: as §1, §2, §3

The target of assay [8] is T2, KRAS G13D protein in DLD-1 cells (Homo sapiens, UniProt P01116, G13D).
T2 construct: endogenous in cells; host or cells: DLD-1
In words: KRAS degradation assay (Western Blot) in DLD-1 cells. The following applies: 24 h.
Excerpt: as §4, §5, §6

In assay [9] the target is T3, KRAS G12V protein in SW620 cells (Homo sapiens, UniProt P01116, G12V).
T3 construct: endogenous in cells; host or cells: SW620
In words: KRAS degradation assay (Western Blot) in SW620 cells.
Excerpt: as §4, §5, §6

Assay [10] deals with KRAS G12D mutant human lung cancer cell A427. In words: 3D cell proliferation inhibition assay, A427. Conditions: A-427, 168 h, 3D culture, 7 days, CTG.
Excerpt: as §1, §2, §3

Assay [11] has as its system KRAS G12D mutant human gastric cancer cell AGS. In words: 3D cell proliferation inhibition assay, AGS. The following applies: 168 h, 3D culture, 7 days, CTG.
Excerpt: as §1, §2, §3

Each structure is given as a SMILES string.

T1 sequence (P01116 1-188 isoform P01116-2 G12V): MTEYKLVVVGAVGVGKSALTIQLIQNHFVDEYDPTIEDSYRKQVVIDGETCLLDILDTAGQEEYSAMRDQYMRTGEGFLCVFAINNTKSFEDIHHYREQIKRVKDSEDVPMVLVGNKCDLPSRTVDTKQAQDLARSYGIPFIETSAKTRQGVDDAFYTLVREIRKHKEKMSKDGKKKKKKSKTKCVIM
T3 sequence (P01116 1-188 isoform P01116-2 G12V): as above
T2 sequence (P01116 1-188 isoform P01116-2 G13D): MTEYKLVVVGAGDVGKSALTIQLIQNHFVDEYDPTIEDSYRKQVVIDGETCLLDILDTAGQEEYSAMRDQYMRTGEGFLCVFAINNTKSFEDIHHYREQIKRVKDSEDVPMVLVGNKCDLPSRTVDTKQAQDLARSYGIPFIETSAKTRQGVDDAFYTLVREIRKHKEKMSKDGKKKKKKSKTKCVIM

For the molecule `C#Cc1cccc2cc(O)cc(-c3ncc4c(N5CCC[C@@](C)(O)C5)nc(OCC5(CN6CCN(CC7CCC8(CC7)CCN(C(=O)c7ccc(C)c(N9CCC(=O)NC9=O)c7)CC8)CC6)CC5)nc4c3F)c12` [Example 27, (R)-1-(5-(9-((4-((1-(((7-(8-ethynyl-3-hydroxynaphthalen-1-yl)-8-fluoro-4-(3-hydroxy-3-methylpiperidin-1l-yl)pyrido[4,3-d]pyrimidin-2-yl)oxy)methyl)cyclopropyl)methyl)piperazin-1-yl)methyl)-3-azaspiro[5.5]undecane-3-carbonyl)-2-methylphenyl)dihydropyrimidine-2,4(1H,3H)-dione], the IC50 in assay [1] is at most 50 nM; in [3], at most 50 nM; in assay [4], at most 50 nM; in [5] it was at most 50 nM; in [6], 3.47 nM. Moreover, the DC50 in assay [2] is at most 50 nM. Further, in [2], the maximal degradation (Dmax) fell in the range of 80 to 100%.
Turning to `C#Cc1c(F)ccc2cc(O)cc(-c3ncc4c(N5CCC[C@@](C)(O)C5)nc(OC[C@H](C)CN5CCN(CC6CCC7(CC6)CCN(C(=O)c6ccc(CC)c(N8CCC(=O)NC8=O)c6)CC7)CC5)nc4c3F)c12` [Example 133, 1-(2-ethyl-5-(9-((4-((R)-3-((7-(8-ethynyl-7-fluoro-3-hydroxynaphthalen-1-yl)-8-fluoro-4-((R)-3-hydroxy-3-methylpiperidin-1-yl)pyrido[4,3-d]pyrimidin-2-yl)oxy)-2-methylpropyl)piperazin-1-yl)methyl)-3-azaspiro[5.5]undecane-3-carbonyl)phenyl)dihydropyrimidine-2,4(1H,3H)-dione], the IC50 came out at 24 nM in assay [1]; 5.68 nM in assay [7]; 9.19 nM in [3]; 5.58 nM in assay [5]; 2.93 nM in [6]. In addition, the DC50 stood at 7.28 nM in assay [8] and 6.73 nM in [9] (24 h). Further, the Dmax in assay [8] was found to be 100%; in assay [9] (SW-620, 24 h), 98.9%.
In the case of `C#Cc1c(F)ccc2cc(O)cc(-c3ccc4c(N5CCC[C@@](C)(O)C5)nc(OCC5(CN6CCN(CC7CCC8(CC7)CCN(C(=O)c7ccc(C)c(N9CCC(=O)NC9=O)c7)CC8)CC6)CC5)nc4c3F)c12` [Example 41, (R)-1-(5-(9-((4-((1-(((7-(8-ethynyl-7-fluoro-3-hydroxynaphthalen-1-yl)-8-fluoro-4-(3-hydroxy-3-methylpiperidin-1-yl)quinazolin-2-yl)oxy)methyl)cyclopropyl)methyl)piperazin-1-yl)methyl)-3-azaspiro[5.5]undecane-3-carbonyl)-2-methylphenyl)dihydropyrimidine-2,4(1H,3H)-dione], the IC50 in assay [1] was 50 to 100 nM; in assay [3], at most 50 nM; in [4] it was at most 50 nM; in assay [6], 9.08 nM. Besides, the DC50 in assay [2] was at most 50 nM. Also, the Dmax in assay [2] is 80 to 100%.
With `C#Cc1c(F)ccc2cc(O)cc(-c3ncc4c(N5CCC[C@@](C)(O)C5)nc(OCC5(CN6CCN(CC7CCC8(CC7)CCN(C(=O)c7ccc9c(c7)C(=O)N(C7CCC(=O)NC7=O)C9=O)CC8)CC6)CC5)nc4c3F)c12` (stereo partly drawn) [Example 13, 2-(2,6-dioxopiperidin-3-yl)-5-(9-((4-((1-(((7-(8-ethynyl-7-fluoro-3-hydroxynaphthalen-1-yl)-8-fluoro-4-((R)-3-hydroxy-3-methylpiperidin-1-yl)pyrido[4,3-d]pyrimidin-2-yl)oxy)methyl)cyclopropyl)methyl)piperazin-1-yl)methyl)-3-azaspiro[5.5]undecane-3-carbonyl)isoindoline-1,3-dione], the IC50 in assay [3] was 50 to 100 nM; in [10], 500 to 1000 nM; in [11], 500 to 1000 nM; in [4], at most 50 nM; in assay [5] it was 500 to 1000 nM.
Take `CCc1cccc2cc(O)cc(-c3ccc4c(N5CCC[C@@](C)(O)C5)nc(OCC5(CN6CCN(CC7CCC8(CC7)CCN(C(=O)c7ccc(OC)c(N9CCC(=O)NC9=O)c7)CC8)CC6)CC5)nc4c3F)c12` [Example 23, (R)-1-(5-(9-((4-((1-(((7-(8-ethyl-3-hydroxynaphthalen-1-yl)-8-fluoro-4-(3-hydroxy-3-methylpiperidin-1-yl)quinazolin-2-yl)oxy)methyl)cyclopropyl)methyl)piperazin-1-yl)methyl)-3-azaspiro[5.5]undecane-3-carbonyl)-2-methoxyphenyl)dihydropyrimidine-2,4(1H,3H)-dione]: the IC50 in assay [1] was 64.2 nM; in assay [7], 63.5 nM; in assay [3], 5.55 nM; in assay [11] it was 69.5 nM; in [4] it was 46.8 nM; in [5], 23.6 nM. In addition, in [6], the IC50 was determined as 12.3 nM. Besides, the DC50 in assay [2] is at most 50 nM. This molecule had a Dmax in assay [2] of 80 to 100%.
